# Results: US9682114B2, “Plant extracts of Ptaeroxylon obliquum nand compounds having antimicrobial and antihelminthic activity” (UNIVERSITY OF PRETORIA, priority 2013, dated 2017)
smiles,measurement,setting,value
"CC(=O)OCC1=CCc2c(cc(O)c3c(=O)cc(C)oc23)OC1 [Compound 2, 8,11-Dihydro-5-hydroxy-12-hydroxymethyl-2-methyl-4H-pyrano[2,3-g][1]benzoxepin-4-one 12-O-acetate]",Cytotoxicity LC50,Vero monkey kidney cells,> 200 µg/mL
same,Cytotoxicity LC50,human liver (C3A) cells,> 200 µg/mL
